Assay results published in PubChem BioAssay AID1259408 (Genetic Toxicology Data Bank (GENE-TOX), 2018).
Activity calls are given as the source filed them. How the calls were made is not given here.

Test system: GENE-TOX genotoxicity assays, various organisms and cells
Assay: GENE-TOX mutagenicity studies
Conditions: for call: Assay Type: In vivo carcinogenicity studies, Assay Code: CCG+
[1] = Species/Cell Type: Drosophila melanogaster, Assay Type: Sex-linked recessive lethal gene mutation, Assay Code: SRL+, Evaluation Type: Evaluation A (Pre-1980)
[2] = Species/Cell Type: Human lymphocytes, Assay Type: Sister-chromatid exchange (SCE) in vitro, Assay Code: SCL+D, Dose Response: With dose response, Evaluation Type: Evaluation B (Post-1980)
[3] = Species/Cell Type: Human, Assay Type: Sister-chromatid exchange (SCE) in vitro, Assay Code: SC1+D, Dose Response: With dose response, Evaluation Type: Evaluation B (Post-1980)
[4] = Species/Cell Type: Mouse, Sex: Male, Assay Type: Sperm morphology, Assay Code: SPI-, Evaluation Type: Evaluation A (Pre-1980)
[5] = Species/Cell Type: Nonhuman, Evaluation Type: Evaluation A (Pre-1980)
[6] = Species/Cell Type: Nonhuman, Assay Type: Sister-chromatid exchange (SCE) in vitro, Assay Code: SC2+D, Dose Response: With dose response, Evaluation Type: Evaluation B (Post-1980)
[7] = Species/Cell Type: Saccharomyces cerevisiae, Assay Type: Mitotic recombination or gene conversion, Assay Code: YEC+, Evaluation Type: Evaluation A (Pre-1980)
[8] = Species/Cell Type: Salmonella typhimurium (one or more of the five standard strains: TA98, TA100, TA1535, TA1537, and TA1538), Assay Type: Histidine reverse gene mutation, Ames assay, Assay Code: SAL+, Evaluation Type: Evaluation A (Pre-1980)
[9] = Species/Cell Type: Drosophila melanogaster, Assay Type: Sex-linked recessive lethal gene mutation, Assay Code: SRLT, Evaluation Type: Evaluation A (Pre-1980)
[10] = Species/Cell Type: Salmonella typhimurium (one or more of the five standard strains: TA98, TA100, TA1535, TA1537, and TA1538), Assay Type: Histidine reverse gene mutation, Ames assay, Assay Code: SALT, Evaluation Type: Evaluation A (Pre-1980)

COc1cc2c(c3oc(=O)c4c(c13)CCC4=O)[C@@H]1C=CO[C@@H]1O2
mutagenic call (Species/Cell Type: Bacillus subtilis (H17 vs M45), Assay Type: Rec-assay, spot test, DNA effects (bacterial DNA repair), Assay Code: REW+, Evaluation Type: Evaluation A (Pre-1980)): active; positive | mutagenic call (Species/Cell Type: Chinese hamster lung (V79) cells, Assay Type: Forward gene mutation at the HPRT or ouabain locus, Assay Code: V79+, Evaluation Type: Evaluation A (Pre-1980)): active; positive | mutagenic call [1]: active; positive | mutagenic call (Species/Cell Type: Escherichia coli polA (W3119 vs P3478), Assay Type: Rec-assay, DNA effects (bacterial DNA repair), Assay Code: RE1+, Evaluation Type: Evaluation A (Pre-1980)): active; positive | mutagenic call (Species/Cell Type: Human diploid fibroblasts, Assay Type: Unscheduled DNA synthesis (UDS) in vitro, DNA effects, Assay Code: UDH+D*, Activation: With metabolic activation, Dose Response: With dose response, Evaluation Type: Evaluation A (Pre-1980)): active; positive | mutagenic call (Species/Cell Type: Human lymphocytes, Assay Type: Sister-chromatid exchange (SCE) in vitro, Assay Code: SCL+D, Dose Response: With dose response, Evaluation Type: Evaluation A (Pre-1980)): active; positive | mutagenic call [2]: active; positive | mutagenic call (Species/Cell Type: Human, Assay Type: Sister-chromatid exchange (SCE) in vitro, Assay Code: SC1+D, Dose Response: With dose response, Evaluation Type: Evaluation A (Pre-1980)): active; positive | mutagenic call [3]: active; positive | mutagenic call (Species/Cell Type: Mammalian germ cells, Sex: Male, Assay Type: Chromosome aberrations in vivo, Assay Code: CY9T, Evaluation Type: Evaluation A (Pre-1980)): no conclusion | mutagenic call (Species/Cell Type: Mammalian polychromatic erythrocytes, Assay Type: Micronucleus test, chromosome aberrations, Assay Code: MNT+, Evaluation Type: Evaluation A (Pre-1980)): active; positive | mutagenic call [4]: inactive; negative | mutagenic call (Species/Cell Type: Neurospora crassa, Assay Type: Forward gene mutation, Assay Code: NEF+, Evaluation Type: Evaluation A (Pre-1980)): active; positive | mutagenic call (Species/Cell Type: Nonhuman, Assay Type: Chromosome aberrations in vitro, Assay Code: CY&+, Evaluation Type: Evaluation A (Pre-1980)): active; positive | call [5]: active; positive | mutagenic call (Species/Cell Type: Nonhuman, Assay Type: Sister-chromatid exchange (SCE) in vitro, Assay Code: SC2+D, Dose Response: With dose response, Evaluation Type: Evaluation A (Pre-1980)): active; positive | mutagenic call [6]: active; positive | mutagenic call (Species/Cell Type: Nonhuman, Assay Type: Sister-chromatid exchange (SCE) in vivo, Assay Code: SC3+, Evaluation Type: Evaluation A (Pre-1980)): active; positive | mutagenic call (Species/Cell Type: Nonhuman, Assay Type: Sister-chromatid exchange (SCE) in vivo, Assay Code: SC3+, Evaluation Type: Evaluation B (Post-1980)): active; positive | mutagenic call (Species/Cell Type: Rat primary hepatocytes, Assay Type: Unscheduled DNA synthesis (UDS) in vitro, DNA effects, Assay Code: UDP+, Evaluation Type: Evaluation A (Pre-1980)): active; positive | mutagenic call (Species/Cell Type: Rat, Sex: Male, Assay Type: Sperm morphology, Assay Code: SPA-, Evaluation Type: Evaluation A (Pre-1980)): inactive; negative | mutagenic call [7]: active; positive | mutagenic call (Species/Cell Type: Saccharomyces cerevisiae, Assay Type: Mitotic recombination or gene conversion, Assay Code: YEH+, Evaluation Type: Evaluation A (Pre-1980)): active; positive | mutagenic call [8]: active; positive | mutagenic call (Species/Cell Type: Salmonella typhimurium, Assay Type: Forward and reverse gene mutation, body fluid assay, Assay Code: BFU+, Evaluation Type: Evaluation A (Pre-1980)): active; positive | mutagenic call (Species/Cell Type: Salmonella typhimurium, Assay Type: Forward and reverse gene mutation, host-mediated assay, Assay Code: HMA+, Evaluation Type: Evaluation A (Pre-1980)): active; positive | mutagenic call (Species/Cell Type: Syrian hamster embryo (SA7/SHE) cells, Assay Type: Cell transformation, viral enhanced, Assay Code: CT7+, Evaluation Type: Evaluation A (Pre-1980)): active; positive | mutagenic call (Species/Cell Type: Syrian hamster embryo (SHE) cells, Assay Type: Cell transformation, clonal assay, Assay Code: CTC+D, Dose Response: With dose response, Evaluation Type: Evaluation A (Pre-1980)): active; positive | mutagenic call (Species/Cell Type: Syrian hamster embryo (SHE) cells, Assay Type: Cell transformation, focus assay, Assay Code: CTF+, Evaluation Type: Evaluation A (Pre-1980)): active; positive

CNC(=O)Oc1cccc2c1OC(C)(C)O2
mutagenic call (Species/Cell Type: Aspergillus nidulans, Assay Type: Aneuploidy, chromosome aberrations, Assay Code: ASN-, Evaluation Type: Evaluation A (Pre-1980)): inactive; negative

O=C1CNCC(=O)N1C1CC1N1C(=O)CNCC1=O (stereo unspecified)
mutagenic call (Species/Cell Type: Chinese hamster lung (V79) cells, Assay Type: Forward gene mutation at the HPRT or ouabain locus, Assay Code: V79-, Evaluation Type: Evaluation A (Pre-1980)): inactive; negative

Oc1ccc2ccccc2c1N=Nc1ccc(N=Nc2ccccc2)cc1
mutagenic call (Species/Cell Type: Bacillus subtilis (H17 vs M45T), Assay Type: Rec-assay, spot test, DNA effects (bacterial DNA repair), Assay Code: REXT, Evaluation Type: Evaluation A (Pre-1980)): no conclusion

CCC(=O)O[C@H]1CC[C@H]2[C@@H]3CCC4=CC(=O)CC[C@]4(C)[C@H]3CC[C@]12C
mutagenic call (Species/Cell Type: Human, Sex: Male, Assay Type: Sperm morphology, Assay Code: SPH+, Evaluation Type: Evaluation A (Pre-1980)): active; positive | call [5]: active; positive

COc1cc(/C=N/NC(=O)COc2ccc(Br)cc2CN2CCCCC2)ccc1O
mutagenic call (Species/Cell Type: Saccharomyces cerevisiae, Assay Type: Reverse gene mutation, Assay Code: YERT, Evaluation Type: Evaluation A (Pre-1980)): no conclusion

O=C1c2cccc(O)c2C(=O)c2c(O[C@@H]3O[C@H](CO)[C@@H](O)[C@H](O)[C@H]3O)cccc21
mutagenic call (Species/Cell Type: Salmonella typhimurium (one or more of the five standard strains: TA98, TA100, TA1535, TA1537, and TA1538), Assay Type: Histidine reverse gene mutation, Ames assay, Assay Code: SAL+*, Activation: With metabolic activation, Evaluation Type: Evaluation A (Pre-1980)): active; positive

COCCOC1=C(N2CC2)C(=O)C(OCCOC)=C(N2CC2)C1=O
mutagenic call [9]: no conclusion | mutagenic call [6]: active; positive

Cc1ccccc1C
mutagenic call (Species/Cell Type: Mammalian polychromatic erythrocytes, Assay Type: Micronucleus test, chromosome aberrations, Assay Code: MNTT, Evaluation Type: Evaluation B (Post-1980)): no conclusion

O=S(=O)(c1ccc(Cl)cc1)c1cc(Cl)c(Cl)cc1Cl
mutagenic call (Species/Cell Type: Vicia faba, Assay Type: Chromosome aberrations, Assay Code: VIC+D, Dose Response: With dose response, Evaluation Type: Evaluation A (Pre-1980)): active; positive

[N-]=[N+]=CC(=O)NCC(N)=O
mutagenic call [6]: active; positive | mutagenic call [8]: active; positive

O=C1O[C@H]([C@@H](O)CO)C(O)=C1O
mutagenic call (Species/Cell Type: Human lymphocytes, Assay Type: Sister-chromatid exchange (SCE) in vitro, Assay Code: SCL+, Evaluation Type: Evaluation A (Pre-1980)): active; positive | mutagenic call (Species/Cell Type: Human lymphocytes, Assay Type: Sister-chromatid exchange (SCE) in vitro, Assay Code: SCLT, Evaluation Type: Evaluation B (Post-1980)): no conclusion | mutagenic call (Species/Cell Type: Human, Assay Type: Sister-chromatid exchange (SCE) in vitro, Assay Code: SC1+, Evaluation Type: Evaluation A (Pre-1980)): active; positive | mutagenic call (Species/Cell Type: Human, Assay Type: Sister-chromatid exchange (SCE) in vitro, Assay Code: SC1T, Evaluation Type: Evaluation B (Post-1980)): no conclusion | mutagenic call (Species/Cell Type: Mammalian polychromatic erythrocytes, Assay Type: Micronucleus test, chromosome aberrations, Assay Code: MNTT, Evaluation Type: Evaluation A (Pre-1980)): no conclusion | mutagenic call [4]: inactive; negative | mutagenic call (Species/Cell Type: Nonhuman, Assay Type: Sister-chromatid exchange (SCE) in vitro, Assay Code: SC2+, Evaluation Type: Evaluation A (Pre-1980)): active; positive | mutagenic call [6]: active; positive | mutagenic call (Species/Cell Type: Nonhuman, Assay Type: Sister-chromatid exchange (SCE) in vivo, Assay Code: SC3T, Evaluation Type: Evaluation B (Post-1980)): no conclusion | mutagenic call [10]: no conclusion

CC(=O)Nc1ccc(C(O)C(O)c2ccccc2)cc1 (stereo unspecified)
mutagenic call [10]: no conclusion

Cc1cc2cc3cc(C)c(N)cc3nc2cc1N
mutagenic call (Species/Cell Type: Mammalian cell culture, nonhuman, Assay Type: Micronucleus test in vitro, chromosome aberrations, Assay Code: MN&+, Evaluation Type: Evaluation A (Pre-1980)): active; positive | mutagenic call [7]: active; positive

CCCOC1=C(N2CC2)C(=O)C(OCCC)=C(N2CC2)C1=O
mutagenic call [1]: active; positive | mutagenic call [2]: active; positive | mutagenic call [3]: active; positive

N#CS
mutagenic call (Species/Cell Type: Glycine max (soybean), Assay Type: Gene mutation, Assay Code: GLM-, Evaluation Type: Evaluation A (Pre-1980)): inactive; negative | mutagenic call [10]: no conclusion

ClCCNCCNc1c2ccccc2nc2c1ccc1ccccc12
mutagenic call [8]: active; positive

C=CCC1=C(C)C(OC(=O)[C@@H]2[C@@H](C=C(C)C)C2(C)C)CC1=O (stereo partly specified)
mutagenic call (Species/Cell Type: Human diploid fibroblasts, Assay Type: Unscheduled DNA synthesis (UDS) in vitro, DNA effects, Assay Code: UDH-, Evaluation Type: Evaluation A (Pre-1980)): inactive; negative | mutagenic call (Species/Cell Type: Saccharomyces cerevisiae, Assay Type: Mitotic recombination or gene conversion, Assay Code: YEH-, Evaluation Type: Evaluation A (Pre-1980)): inactive; negative

CC1(C)S[C@@H]2[C@H](NC(=O)Cc3ccccc3)C(=O)N2[C@H]1C(=O)O
mutagenic call [9]: no conclusion | mutagenic call (Species/Cell Type: Salmonella typhimurium (one or more of the five standard strains: TA98, TA100, TA1535, TA1537, and TA1538), Assay Type: Histidine reverse gene mutation, Ames assay, Assay Code: SAL-, Evaluation Type: Evaluation A (Pre-1980)): inactive; negative

Nc1nc2n[nH]nc2c(=O)[nH]1
mutagenic call (Species/Cell Type: Neurospora crassa, Assay Type: Aneuploidy, chromosome aberrations, Assay Code: NEN-, Evaluation Type: Evaluation A (Pre-1980)): inactive; negative
